The values below come from article PMC7064328 (Environmental Health Perspectives, 2020).

On the set-up of series [1]: method as in Olsen et al. 2007. The note with it: ref Olsen et al. 2007; cited from earlier work.
Another series concerns mice. On the set-up: method as in Koustas et al. 2014. To be noted: pregnant dams; meta-analysis; ref Koustas et al. 2014; cited from earlier work.
A short description of series [2]: Maternal indices: dam body weight, gestational weight gain, liver and kidney weight after daily oral gavage E1.5 to E11.5 or E17.5. The format is in vivo, mouse (CD-1). To be noted: female, CD-1, mouse, in vivo, oral; dam systemic toxicity: liver alterations, higher GWG, placental lesions; read-out: Lowest dose group evaluated, with significant adverse effects (no NOAEL reportable). The protocol:
Naïve female CD-1 mice between 7.5 and 15.5 wk of age from the NIEHS colony were bred in-house on a single night, and copulatory plug–positive females were identified on embryonic day (E) 0.5. Pregnant dams were singly housed in ventilated polypropylene cages and received nesting materials, National Institutes of Health (NIH)-31 diet (Zeigler Bros., Inc.) and reverse osmosis deionized (RODI) water ad libitum. Animals were housed in humidity- and temperature-controlled rooms with 25°C and 45–60% average humidity and standard 12-h light cycles. All animal procedures were approved by the NIEHS Animal Care and Use Committee (ASP #2017-0022).
PFOA and GenX dosing solutions were prepared in RODI water and administered to mice once daily via oral gavage. Daily doses were administered between 0700 and 0800 hours and adjusted to the BW of the mouse based on the previous day’s weight at a volume of 0.01mL/g BW. […] The dose of 1mg/kg BW/d PFOA, used in the mouse developmental toxicity study of [Lau et al. 2006], provided a lowest effect dose that was used to set the reference dose within the U.S. EPA’s drinking water lifetime health advisory level (HAL) of 70 ppt PFOA ([U.S. EPA 2016]).
This experiment was conducted over two blocks (Block 1 and Block 2) to achieve a total of n=11–13 litters per treatment group and sacrifice time point (E11.5 and E17.5). The experimental design of the second block was identical to the first block of the study, and experimental methods were similar but expanded upon to include more rigorous and detailed measurements. Copulatory plug–positive mice (E0.5) were weighed to obtain a baseline BW and placed into one of five groups. Once all mice were assigned to groups, mean BWs were calculated, and a few animals were reassigned so that mean BWs in each group were similar. This was done to avoid confounding effects of baseline BW. Treatment groups were then randomly assigned a color by using a random sequence generator. Experimenters and dosing technicians were blinded to the treatment group to which the color groups corresponded throughout the duration of the study, including at necropsy. […] Pregnant dams were dosed via oral gavage from E1.5 to E11.5 or from E1.5 to E17.5. […] The E11.5 early-gestation time point was selected because it overlaps a critical period of placental development in the mouse where the placenta undergoes vascularization with the uterine wall and chorioallantoic branching of vessels begins ([Watson and Cross 2005]). The E17.5 late-gestation time point was selected so that embryo weight changes that may be related to treatment would be evident.
On the day of necropsy, dams received daily oral gavage between 0700 and 0800 hours and were weighed and then euthanized humanely by swift decapitation, and serum was collected. In Block 1, necropsies were completed from 0800 to 1600 hours, and in Block 2, necropsies were completed from 0800 to 1200 hours. Serum from dams euthanized in Block 1 was snap frozen for internal dosimetry analyses. Serum and urine from Block 2 dams were reserved for clinical chemistry analyses. In both blocks, the uterus was removed, and total implantation sites were counted based on gross observation of an implantation nodule along the uterine horn. Viable embryos, nonviable embryos, and sites of resorption were counted based on gross observation. Embryos were considered viable if they were properly formed, were not pale in color, and were of similar size to neighboring embryos. Embryos that were poorly formed and pale in color (without heartbeat) were considered nonviable. Sites of resorption were defined as a dark red–appearing clot-like nodule apparent on gross observation.
From each uterus, first, viable embryos and their matched placentas were collected in succession within a horn and immediately snap frozen ( n=2–5 per litter ), and subsequent embryos were collected for growth measurements ( n=2–11 per litter ). […]

In the case of `O=C(O)C(F)(F)C(F)(F)C(F)(F)C(F)(F)C(F)(F)C(F)(F)C(F)(F)F` [PFOA, Perfluorooctanoic acid], the Human half-life in series [1] is listed as around 3.5 y. The “Shift in pup birth weight per 1-mg/kg BW/d increase in PFOA dose” value with mice is -0.023 g. For `N.O=C(O)C(F)(OC(F)(F)C(F)(F)C(F)(F)F)C(F)(F)F` (stereo not drawn) [GenX, ammonium 2,3,3,3-tetrafluoro-2-(heptafluoropropoxy)propanoate], the LOAEL in series [2] was 2 mg/kg/day.
